Measured values from the supplement of paper PMC8920030.

Experiments:
Details in all cases: growth mode: biofilm, 24 h; exposure time: 24 h
tobramycin [1] = compound: T1, NC[C@H]1O[C@H](O[C@H]2[C@H](O)[C@@H](O[C@H]3O[C@H](CO)[C@@H](O)[C@H](N)[C@H]3O)[C@H](N)C[C@@H]2N)[C@H](N)C[C@@H]1O [tobramycin]; test: minimum concentration eradicating biofilm below detection limit (MCK-E); higher = more biofilm tolerance
Procedure: (§1)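 Clinical P. aeruginosa isolates were grown as static biofilms for 24 h at 37 °C in LB in half-area 96-well plates, then exposed for 24 h to tobramycin at 1, 4, 16, 64, 256 or […]. Surviving CFU were counted by spotting serial dilutions. MCK is the lowest tested concentration giving the stated log reduction in CFU versus an untreated control; '>1024' means the reduction was not reached at the top dose, and 1 is the lowest dose tested (≤1).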

colistin [2] = compound: T2, CCC(C)CCCC(=O)N[C@@H](CCN)C(=O)N[C@H](C(=O)N[C@@H](CCN)C(=O)N[C@H]1CCNC(=O)[C@H]([C@@H](C)O)NC(=O)[C@H](CCN)NC(=O)[C@H](CCN)NC(=O)[C@H](CC(C)C)NC(=O)[C@@H](CC(C)C)NC(=O)[C@H](CCN)NC1=O)[C@@H](C)O [colistin]; test: as above
Procedure: (§2)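 Clinical P. aeruginosa isolates were grown as static biofilms for 24 h at 37 °C in LB in half-area 96-well plates, then exposed for 24 h to colistin at 1, 4, 16, 64, 256 or […]. Surviving CFU were counted by spotting serial dilutions. MCK is the lowest tested concentration giving the stated log reduction in CFU versus an untreated control; '>1024' means the reduction was not reached at the top dose, and 1 is the lowest dose tested (≤1).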

tobramycin [3] = compound: T1, tobramycin; test: minimum concentration of killing, 1-log CFU reduction of biofilm (MCK90); higher = more biofilm tolerance
Procedure: as §1

tobramycin [4] = compound: T1, tobramycin; test: minimum concentration of killing, 4-log CFU reduction of biofilm (MCK99.99); higher = more biofilm tolerance
Procedure: as §1

colistin [5] = compound: T2, colistin; test: as above
Procedure: as §2

tobramycin [6] = compound: T1, tobramycin; test: minimum concentration of killing, 2-log CFU reduction of biofilm (MCK99); higher = more biofilm tolerance
Procedure: as §1

colistin [7] = compound: T2, colistin; test: as above
Procedure: as §2

colistin [8] = compound: T2, colistin; test: minimum concentration of killing, 1-log CFU reduction of biofilm (MCK90); higher = more biofilm tolerance
Procedure: as §2

| Test System | minimum concentration eradicating biofilm below detection limit (tobramycin [1]) [µg/mL] | minimum concentration eradicating biofilm below detection limit (colistin [2]) [µg/mL] | minimum concentration of killing (tobramycin [3]) [µg/mL] | minimum concentration of killing (tobramycin [4]) [µg/mL] | minimum concentration of killing (colistin [5]) [µg/mL] | minimum concentration of killing (tobramycin [6]) [µg/mL] | minimum concentration of killing (colistin [7]) [µg/mL] | minimum concentration of killing (colistin [8]) [µg/mL] |
| --- | --- | --- | --- | --- | --- | --- | --- | --- |
| Pseudomonas aeruginosa clinical isolate F1957 | 1020 | 1020 | 256 | 1020 | 256 | 1020 | 256 | 256 |
| Pseudomonas aeruginosa clinical isolate F1959 | > 1020 | 64 | 16 | 1020 | 64 | 64 | 64 | 64 |
| Pseudomonas aeruginosa clinical isolate F1968 | 1020 | 256 | 4 | 256 | 256 | 64 | 256 | 64 |
| Pseudomonas aeruginosa clinical isolate F2003 | 1020 | 1020 | ≤ 1 | 256 | 1020 | 4 | 256 | 64 |
| Pseudomonas aeruginosa clinical isolate F2005 | 1020 | 256 | ≤ 1 | 16 | 256 | 16 | 256 | 16 |
| Pseudomonas aeruginosa clinical isolate F2006 | 64 | 256 | ≤ 1 | 64 | 256 | ≤ 1 | 64 | 64 |
| Pseudomonas aeruginosa clinical isolate F2010 | 1020 | 1020 | 64 | 256 | 256 | 64 | 256 | 64 |
| Pseudomonas aeruginosa clinical isolate F2017 | > 1020 | > 1020 | 16 | 256 | 256 | 256 | 64 | 4 |
| Pseudomonas aeruginosa clinical isolate F2020 | 1020 | 256 | 16 | 256 | 64 | 16 | 64 | 16 |
